Earlier results in US20100029602A1, “LOW-DOSE MOMETASONE FORMULATIONS” (Perrigo Israel Pharmaceuticals Ltd., priority 2007, published 2010).

SMILES: C[C@@H]1C[C@H]2[C@@H]3CCC4=CC(=O)C=C[C@]4(C)[C@@]3(Cl)[C@@H](O)C[C@]2(C)[C@@]1(OC(=O)c1ccco1)C(=O)CCl [Mometasone furoate]
- solubility in ethyl alcohol (ethyl alcohol): moderately soluble
- solubility in octanol (octanol): slightly soluble
- solubility in water (water): practically insoluble
